The data set in a line: in vitro. Particulars: rat, gh3-tre-luc cells.

Usually CC50 stands for the concentration at which the toxic effect on the cells reaches its halfway point. High values mean better tolerance by the cells, low ones harm at low concentration.

Where a name gives a salt, the structure may show the parent alone. A value given as a limit tells only on which side of the number the result lay.

On to `O=c1[nH]c(=O)c2c[nH]nc2[nH]1` [Oxypurinol], for which the CC50 at 24 h (AC50 (uM) modified / 1000) was greater than 90 µM.
As to `CC(/C=C1\SC(=S)N(CC(=O)O)C1=O)=C\c1ccccc1` [Epalrestat], the CC50 at 24 h (AC50 (uM) modified / 1000) amounted to 42.6 µM.
Same read-out and setting: for `CC12CCC(C1)C(C)(C)C2=O` (stereo not drawn) [alpha-Fenchone] the value was greater than 50 µM; for `CC(C)(C)c1ccc(OCC2CO2)cc1` (stereo not shown) [tert-Butyl phenyl glycidyl ether], greater than 90 µM.
Still for that read-out and setting: for `NS(=O)(=O)c1cc2c(cc1Cl)NC(C1CC3C=CC1C3)NS2(=O)=O` (stereo not shown) [Cyclothiazide] the value was greater than 50 µM; for `Nc1ncnc2c1ncn2[C@@H]1O[C@H](COP(=O)(O)O)[C@@H](O)[C@H]1O` [Adenosine 5'-phosphate], greater than 50 µM.
As for `CNC(=O)Oc1cccc(N=CN(C)C)c1` [Formetanate hydrochloride], under “AC50 (uM) modified / 1000, Tox21_110001=Tox21_300778, viability, 1 nM T3 present, 24 h”, the CC50 at 24 h is greater than 90 µM.
In turn, `Nc1nc(=O)n([C@@H]2CS[C@H](CO)O2)cc1F` [Emtricitabine] showed a cytotoxic concentration (CC50) at 24 h (AC50 (uM) modified / 1000) greater than 50 µM.
The same measure, in the same setting: for `NC(=O)Nc1ccc(Cl)cc1` [4-Chlorophenylurea] the value was greater than 90 µM.
Where the note is “AC50 (uM) modified / 1000”, `COc1ccccc1N=Nc1c(S(=O)(=O)O)cc2cc(S(=O)(=O)O)cc(NC(C)=O)c2c1O` [C.I. Acid Violet 12, disodium salt] showed a CC50 at 24 h of 36.9 µM.
Take `CCC(C)(NC(=O)c1cc(Cl)c(C)c(Cl)c1)C(=O)CCl` (stereo not shown) [Zoxamide]: half-maximal cytotoxicity (AC50 (uM) modified / 1000) (CC50 at 24 h) was put at 15 µM.
As to `c1ccc(N=NNc2ccccc2)cc1` [Diazoaminobenzene], the CC50 at 24 h came out at 69 µM (AC50 (uM) modified / 1000, Tox21_110001=Tox21_202253, viability, 1 nM T3 present, 24 h) and 47.9 µM (AC50 (uM) modified / 1000, Tox21_110001=Tox21_303249, viability, 1 nM T3 present, 24 h).
Regarding `CCCCCCCCC(=O)OCC(C)OC(=O)CCCCCCCC` (stereo not shown) [Propylene glycol dipelargonate], for the setting “AC50 (uM) modified / 1000”, the CC50 at 24 h is greater than 100 µM.
Regarding `CCCOCCO` [2-Propoxyethanol], the CC50 at 24 h (AC50 (uM) modified / 1000) is greater than 90 µM.
Still for that read-out and setting: in the case of `CC(CCCCN)C(C)(C)N` (stereo not shown) [Trimethylhexane-1,6-diamine] it was greater than 200 µM.
The compound `O=C1C(=O)c2cccc3cccc1c23` [Acenaphthenequinone] came in with a CC50 at 24 h (AC50 (uM) modified / 1000, Tox21_110001=Tox21_202947, viability, 1 nM T3 present, 24 h) greater than 90 µM.
`C/C=C/C=C/COC(=O)C(C)C` [2,4-Hexadienyl isobutyrate] registered a CC50 at 24 h (AC50 (uM) modified / 1000) of 75.5 µM.
On the same count and under the same terms, for `CCCCC(CC)C(=O)OCCOCCOCCOCCOC(=O)C(CC)CCCC` (stereo not shown) [Tetraethylene glycol di(2-ethylhexanoate)] the value was greater than 90 µM; for `[O-][N+](=Nc1ccccc1)c1ccccc1` [Azoxybenzene], greater than 90 µM.
Still for that read-out and setting: in the case of `CCCCCCCC/C=C\CCCCCCCC(=O)NCc1ccc(O)c(OC)c1` [Olvanil] it was 8.65 µM.
Still for that read-out and setting: for `CC(C(=O)O)c1ccc(C(=O)c2cccs2)cc1` (stereo not shown) [Suprofen] the value was greater than 20 µM; for `Clc1ccc(C(Cn2ccnc2)OCc2c(Cl)cccc2Cl)c(Cl)c1` (stereo not shown) [Isoconazole], 13.8 µM.
The compound `CC(C)CCCCCOC(=O)CCS` [Isooctyl 3-mercaptopropionate] showed a CC50 at 24 h (AC50 (uM) modified / 1000) greater than 90 µM.
Same read-out and setting: in the case of `CO/N=C(\C(=O)N[C@@H]1C(=O)N2C(C(=O)O)=C(CSc3nc(=O)c(=O)[nH]n3C)CS[C@H]12)c1csc(N)n1` [Ceftriaxone disodium trihydrate] it was greater than 50 µM; in that of `O=[N+]([O-])CCO` [2-Nitroethanol], greater than 100 µM.
As for `CCOP(=S)(OCC)SCn1c(=O)oc2cc(Cl)ccc21` [Phosalone], the CC50 at 24 h is, setting by setting: (AC50 (uM) modified / 1000, Tox21_110001=Tox21_202294, viability, 1 nM T3 present, 24 h) greater than 100 µM; (AC50 (uM) modified / 1000, Tox21_110001=Tox21_300811, viability, 1 nM T3 present, 24 h) 80.4 µM.
With `O=C1CCCCCN1SSN1CCCCCC1=O` [1,1'-Disulfanediyldiazepan-2-one], the CC50 at 24 h (AC50 (uM) modified / 1000) was found to be 53.9 µM.
`CC(=O)OC/C=C(/C)CCC=C(C)C` [cis-3,7-Dimethyl-2,6-octadien-1-yl acetate] came in with a CC50 at 24 h (AC50 (uM) modified / 1000) greater than 90 µM.
Same read-out and setting: for `CN1C(=O)NC(=O)C(C)(C2=CCCCC2)C1=O` (stereo not shown) [Hexobarbital] the value was greater than 50 µM; for `O=C(OCC1(COC(=O)c2cccnc2)CCCC(COC(=O)c2cccnc2)(COC(=O)c2cccnc2)C1O)c1cccnc1` [Nicomolol], greater than 50 µM; for `CC(=O)OC1CCC(C(C)(C)C)CC1` (stereo not shown) [4-tert-Butylcyclohexyl acetate], greater than 90 µM.
Still for that read-out and setting: in the case of `Fc1ccc(C(c2ccc(F)cc2)N2CCN(C/C=C/c3ccccc3)CC2)cc1` [Flunarizine] it was 12.3 µM.
Take `C=CCN1CC[C@]23c4c5ccc(O)c4O[C@H]2[C@@H](O)C=C[C@H]3[C@H]1C5` [Nalorphine hydrochloride]: the CC50 at 24 h (AC50 (uM) modified / 1000, Tox21_110001=Tox21_112614, viability, 1 nM T3 present, 24 h) was greater than 50 µM.
In turn, `CCN(CC)CCNC(=O)c1cc(Br)c(N)cc1OC` [Bromopride] showed a CC50 at 24 h (AC50 (uM) modified / 1000) greater than 50 µM.
Regarding `C=CC1=C(C(=O)O)N2C(=O)[C@@H](NC(=O)/C(=N\OCC(=O)O)c3csc(N)n3)[C@H]2SC1` [Cefixime], under “AC50 (uM) modified / 1000”, the CC50 at 24 h is greater than 20 µM.
In turn, `c1ccc2c(c1)CCNC2` [1,2,3,4-Tetrahydroisoquinoline] had a CC50 at 24 h (AC50 (uM) modified / 1000) greater than 90 µM.
On the same count and under the same terms, for `C[N+]1(C)CCCC(OC(=O)C(O)(c2ccccc2)c2ccccc2)C1` (stereo not shown) [Mepenzolate bromide] the value was greater than 20 µM; for `CC(C)CCOC(=O)/C=C/c1ccccc1` [3-Methylbutyl cinnamate], greater than 90 µM.
Same read-out and setting: in the case of `O=C(O)C(F)(F)C(F)(F)C(F)(F)C(F)(F)C(F)(F)C(F)(F)C(F)(F)C(F)(F)F` [Perfluorononanoic acid] it was greater than 90 µM; in that of `CO/N=C1\CN(c2nc3c(cc2F)c(=O)c(C(=O)O)cn3C2CC2)CC1CN` (stereo not shown) [Gemifloxacin mesylate], greater than 50 µM.
`Nc1ccc(S(=O)(=O)NC(=O)c2ccccc2)cc1` [Sulfabenzamide] yielded a half-maximal cytotoxic concentration (CC50) at 24 h (AC50 (uM) modified / 1000) greater than 20 µM.
Still for that read-out and setting: in the case of `c1ccc2c(c1)OCC(C1=NCCN1)O2` (stereo not shown) [Idazoxan] it was 7.8 µM; in that of `C[C@@H]1CN(c2c(F)c(F)c3c(=O)c(C(=O)O)cn(C4CC4)c3c2F)C[C@H](C)N1` [Orbifloxacin], greater than 50 µM; in that of `N=C1NC(=O)N2CC12` (stereo not shown) [Imexon], greater than 50 µM.
On the same count and under the same terms, for `CCCc1cc(=O)[nH]c(=S)[nH]1` [6-Propyl-2-thiouracil] the value was greater than 90 µM.
Where the note is “AC50 (uM) modified / 1000, Tox21_110001=Tox21_202716, viability, 1 nM T3 present, 24 h”, `BrCCCBr` [1,3-Dibromopropane] displayed a CC50 at 24 h greater than 100 µM.
Where the note is “AC50 (uM) modified / 1000”, `CC(C)OC(=O)C(C)N(C(=O)c1ccccc1)c1ccc(F)c(Cl)c1` (stereo not shown) [Flamprop-isopropyl] came in with a CC50 at 24 h of 50 µM.
`CC(=O)N/N=C/c1ccc([N+](=O)[O-])o1` [Nihydrazone] had a CC50 at 24 h (AC50 (uM) modified / 1000) of 17.4 µM.
The compound `C1CNCCN1` [Piperazine] yielded a CC50 at 24 h (AC50 (uM) modified / 1000) greater than 50 µM.
The same measure, in the same setting: for `CCN(CC)C(=O)/C(C#N)=C/c1cc(O)c(O)c([N+](=O)[O-])c1` [Entacapone] the value was greater than 50 µM; for `Cn1cnc2ncnc(N)c21` [7-Methyladenine], greater than 50 µM.
Compound `CCOP(=S)(OCC)Oc1ccc2c(C)c(Cl)c(=O)oc2c1` [Coumaphos] yielded a CC50 at 24 h (AC50 (uM) modified / 1000, Tox21_110001=Tox21_111290, viability, 1 nM T3 present, 24 h) greater than 50 µM and a CC50 at 24 h (AC50 (uM) modified / 1000, Tox21_110001=Tox21_201841, viability, 1 nM T3 present, 24 h) greater than 90 µM.
Compound `CC(C)[C@@H](C)/C=C/[C@@H](C)[C@H]1CC[C@H]2/C(=C/C=C3\C[C@@H](O)CC[C@@H]3C)CCC[C@]12C` [Dihydrotachysterol] showed a CC50 at 24 h (AC50 (uM) modified / 1000) greater than 50 µM.
On the same count and under the same terms, for `CCCCCCCCCCl` [1-Chlorononane] the value was greater than 90 µM.
For the setting “AC50 (uM) modified / 1000, Tox21_110001=Tox21_110110, viability, 1 nM T3 present, 24 h”, `Clc1cccc(N2CCNCC2)c1` [1-(3-Chlorophenyl)piperazine] had a CC50 at 24 h greater than 50 µM.
With `O=S(=O)(O)c1ccc2cc(O)ccc2c1` [Potassium 6-hydroxynaphthalene-2-sulfonate], the CC50 at 24 h (AC50 (uM) modified / 1000) is greater than 90 µM.
Still for that read-out and setting: for `CC(=O)Oc1ccc(C(=C2CCCCC2)c2ccc(OC(C)=O)cc2)cc1` [Cyclofenil] the value was greater than 50 µM.
On the same count and under the same terms, in the case of `COC(=O)OC` [Dimethyl carbonate] it was greater than 90 µM; in that of `CC(C)(C)c1ccc(C(=O)O)cc1` [4-tert-Butylbenzoic acid], greater than 90 µM; in that of `O=C(O)CCC/C=C\C[C@H]1[C@H](/C=C/[C@H](O)COc2cccc(Cl)c2)[C@@H](O)C[C@H]1O` [Cloprostenol sodium], greater than 50 µM.
On the same count and under the same terms, for `N[C@H](CC(=O)O)C(=O)O` [D-Aspartic acid] the value was greater than 50 µM; for `CCCCNC(=O)NS(=O)(=O)c1ccc(C)cc1` [Tolbutamide], greater than 90 µM; for `CO/N=C(\C(=O)N[C@@H]1C(=O)N2C(C(=O)O)=C(CSc3nnnn3C)CS[C@H]12)c1csc(N)n1` [Cefmenoxime hydrochloride], greater than 50 µM.
In the case of `CCOC(=O)c1ccc(C)cc1` [Ethyl 4-methylbenzoate], the CC50 at 24 h (AC50 (uM) modified / 1000) is greater than 90 µM.
On to `OC[C@H]1O[C@H](O[C@H]2O[C@H](CO)[C@@H](O)[C@H](O)[C@H]2O)[C@H](O)[C@@H](O)[C@@H]1O` [Trehalose dihydrate], for which the CC50 at 24 h (AC50 (uM) modified / 1000) is greater than 90 µM.
As for `CNC(=O)Oc1ccc(N(C)C)c(C)c1` [Aminocarb], the CC50 at 24 h (AC50 (uM) modified / 1000, Tox21_110001=Tox21_301423, viability, 1 nM T3 present, 24 h) was greater than 90 µM.
Where the note is “AC50 (uM) modified / 1000, Tox21_110001=Tox21_202582, viability, 1 nM T3 present, 24 h”, `Nc1c(Br)cc(Br)c2c1C(=O)c1ccccc1C2=O` [1-Amino-2,4-dibromoanthraquinone] had a CC50 at 24 h greater than 20 µM.

The values are drawn from PMC6792352, “Limited Chemical Structural Diversity Found to Modulate Thyroid Hormone Receptor in the Tox21 Chemical Library” (Environmental Health Perspectives, 2019).
